This is an account of results in patent US12479830B2, “Homopiperazinyl and homopiperidinyl quinazolin-4(3H)-one derivatives having multimodal activity against pain” (ESTEVE PHARMACEUTICALS, S.A., priority 2019, dated 2025).

In general, Ki refers to the equilibrium dissociation constant of an inhibitor or competing ligand from its target.

The target of one test is T1, Human σ1 receptor (Homo sapiens, UniProt Q99720).
T1 construct: expressed in transfected cells; host or cells: HEK-293
In words: Human σ1 receptor radioligand assay ([3H](+)-pentazocine binding). Conditions: binding to the σ1 receptor, expressed as Ki class; + also covers inhibition between 1% and 50%. As for the experimental part:
Human σ1 Receptor Radioligand Assay
Transfected HEK-293 membranes (7 μg) were incubated with 5 nM of [^3H](+)-pentazocine in assay buffer containing Tris-HCl 50 mM at pH 8. NBS (non-specific binding) was measured by adding 10 μM haloperidol. The binding of the test compound was measured at either one concentration (% inhibition at 1 or 10 μM) or five different concentrations to determine affinity values (Ki). Plates were incubated at 37° C. for 120 minutes. After the incubation period, the reaction mix was then transferred to MultiScreen HTS, FC plates (Millipore), filtered and plates were washed 3 times with ice-cold 10 mM Tris-HCL (pH7.4). Filters were dried and counted at approximately 40% efficiency in a MicroBeta scintillation counter (Perkin-Elmer) using EcoScint liquid scintillation cocktail.

The target in test [1] is Human α2δ-1 subunit of Cav2.2 calcium channel (Homo sapiens, UniProt P54289). In words: Human α2δ-1 subunit of Cav2.2 calcium channel assay ([3H]-gabapentin binding). Conditions: binding to the α2δ-1 subunit of voltage-gated calcium channels, expressed as Ki class; + also covers inhibition between 1% and 50%. How it is done:
Human α2δ-1 Subunit of Cav2.2 Calcium Channel Assay
Human α2δ-1 enriched membranes (2.5 μg) were incubated with 15 nM of radiolabeled [^3H]-Gabapentin in assay buffer containing Hepes-KOH 10 mM. pH 7.4. NSB (non specific binding) was measured by adding 10 μM pregabalin. The binding of the test compound was measured at either one concentration (% inhibition at 1 or 10 μM) or five different concentrations to determine affinity values (Ki). After 60 min incubation at 27° C., binding reaction was terminated by filtering through Multiscreen GF/C (Millipore) presoaked in 0.5% polyethyleneimine in Vacuum Manifold Station, followed by 3 washes with ice-cold filtration buffer containing 50 mM Tris-HCl, pH 7.4. Filter plates were dried at 60° C. for 1 h and 30 μL of scintillation cocktail were added to each well before radioactivity reading. Readings were performed in a Trilux 1450 Microbeta radioactive counter (Perkin Elmer).

Bounds are passed on as bounds.

T1 sequence (Q99720 whole entry): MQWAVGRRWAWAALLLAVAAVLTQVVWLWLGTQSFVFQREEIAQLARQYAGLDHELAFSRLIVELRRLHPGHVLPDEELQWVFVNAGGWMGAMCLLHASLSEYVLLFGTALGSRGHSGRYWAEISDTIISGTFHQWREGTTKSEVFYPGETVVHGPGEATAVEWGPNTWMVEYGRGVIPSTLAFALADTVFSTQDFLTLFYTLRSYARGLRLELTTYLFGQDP
Sequence of Human α2δ-1 subunit of Cav2.2 calcium channel (P54289 25-1103): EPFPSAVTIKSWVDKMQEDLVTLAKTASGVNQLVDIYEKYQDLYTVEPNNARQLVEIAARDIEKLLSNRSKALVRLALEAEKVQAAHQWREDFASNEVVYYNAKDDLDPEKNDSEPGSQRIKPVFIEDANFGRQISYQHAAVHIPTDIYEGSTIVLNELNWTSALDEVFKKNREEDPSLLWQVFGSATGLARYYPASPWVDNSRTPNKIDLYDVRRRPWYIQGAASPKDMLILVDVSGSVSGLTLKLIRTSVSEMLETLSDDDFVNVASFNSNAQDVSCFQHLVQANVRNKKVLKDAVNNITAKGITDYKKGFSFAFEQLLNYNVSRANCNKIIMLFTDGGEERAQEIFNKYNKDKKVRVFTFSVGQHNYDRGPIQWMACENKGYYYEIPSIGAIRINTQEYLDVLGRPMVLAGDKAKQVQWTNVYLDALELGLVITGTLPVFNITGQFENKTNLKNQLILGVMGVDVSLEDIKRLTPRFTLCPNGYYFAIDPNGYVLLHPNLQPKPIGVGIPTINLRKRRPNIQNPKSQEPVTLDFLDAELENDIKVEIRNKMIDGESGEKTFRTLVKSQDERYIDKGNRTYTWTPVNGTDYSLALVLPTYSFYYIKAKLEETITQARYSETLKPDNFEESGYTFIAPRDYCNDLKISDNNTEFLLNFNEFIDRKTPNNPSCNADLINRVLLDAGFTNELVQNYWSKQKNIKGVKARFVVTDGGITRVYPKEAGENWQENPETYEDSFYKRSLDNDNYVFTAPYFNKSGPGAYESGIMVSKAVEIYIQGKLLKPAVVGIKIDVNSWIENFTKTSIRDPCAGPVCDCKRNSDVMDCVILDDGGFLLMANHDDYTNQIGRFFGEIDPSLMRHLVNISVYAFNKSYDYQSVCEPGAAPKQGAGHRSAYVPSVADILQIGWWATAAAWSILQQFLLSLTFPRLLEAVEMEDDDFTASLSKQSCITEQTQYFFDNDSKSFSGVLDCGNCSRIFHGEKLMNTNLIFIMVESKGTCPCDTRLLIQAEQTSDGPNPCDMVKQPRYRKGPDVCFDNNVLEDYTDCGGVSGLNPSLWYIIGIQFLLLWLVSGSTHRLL

Turning to `CCCC(c1nc2cc(Br)c(F)cc2c(=O)n1CC)N1CCCN(CC)CC1` (stereo not drawn) [Example 63, 7-bromo-3-ethyl-2-(1-(4-ethyl-1,4-diazepan-1-yl)butyl)-6-fluoroquinazolin-4(3H)-one], the Ki (on Human σ1 receptor; in test [1]) was less than 500 nM throughout.
With `CCCC(c1nc2c(Cl)cc(F)cc2c(=O)n1CC)N1CCCN(C)CC1` (stereo not drawn) [Example 64, 8-chloro-3-ethyl-6-fluoro-2-(1-(4-methyl-1,4-diazepan-1-yl)butyl)quinazolin-4(3H)-one], the inhibition constant Ki at Human σ1 receptor is greater than 1000 nM; in test [1], greater than 5000 nM.
As to `CCCC(c1nc2c(Cl)cc(F)cc2c(=O)n1CC)N1CCCN(CC)CC1` (stereo not drawn) [Example 65, 8-chloro-3-ethyl-2-(1-(4-ethyl-1,4-diazepan-1-yl)butyl)-6-fluoroquinazolin-4(3H)-one], the values for the inhibitory constant (Ki) (on Human σ1 receptor; in test [1]) were greater than 1000 nM and greater than 5000 nM, respectively.
`CCC[C@H](c1nc2ccc(Br)cc2c(=O)n1CC)N1CCN2CCC1CC2` [Example 66, (R)-2-(1-(1,4-diazabicyclo[3.2.2]nonan-4-yl)butyl)-6-bromo-3-ethylquinazolin-4(3H)-one]: the Ki at Human σ1 receptor was greater than 1000 nM; in test [1], greater than 5000 nM.
`CCC[C@H](c1nc2ccc(Br)cc2c(=O)n1CCC)N1CCNC[C@H](C)C1` [Example 67, 6-bromo-2-((R)-1-((S)-6-methyl-1,4-diazepan-1-yl)butyl)-3-propylquinazolin-4(3H)-one]: the Ki at Human σ1 receptor is greater than 1000 nM; in test [1], less than 500 nM.
The like results for `CCC[C@H](c1nc2ccc(Br)cc2c(=O)n1CCC)N1CCNC[C@@H](C)C1` [Example 68, 6-bromo-2-((R)-1-((R)-6-methyl-1,4-diazepan-1-yl)butyl)-3-propylquinazolin-4(3H)-one] were, in that order, greater than 1000 nM and less than 500 nM.
Take `CCC[C@@H](c1nc2ccc(Br)cc2c(=O)n1CCC)N1CCNC[C@H](C)C1` [Example 69, 6-bromo-2-((S)-1-((S)-6-methyl-1,4-diazepan-1-yl)butyl)-3-propylquinazolin-4(3H)-one]: the inhibition constant Ki at Human σ1 receptor is greater than 1000 nM; in test [1] it was 500 to 5000 nM.
On to `CCC[C@@H](c1nc2ccc(Br)cc2c(=O)n1CCC)N1CCNC[C@@H](C)C1` [Example 70, 6-bromo-2-((S)-1-((R)-6-methyl-1,4-diazepan-1-yl)butyl)-3-propylquinazolin-4(3H)-one], for which the inhibitory constant (Ki) was greater than 1000 nM at Human σ1 receptor and greater than 5000 nM in test [1].
As to `CCCC(c1nc2c(Cl)cc(F)cc2c(=O)n1CC)N1CCCNCC1` (stereo not drawn) [Example 71, 2-(1-(1,4-diazepan-1-yl)butyl)-8-chloro-3-ethyl-6-fluoroquinazolin-4(3H)-one], the Ki at Human σ1 receptor is greater than 1000 nM; in test [1], greater than 5000 nM.
In the case of `CCCC(c1nc2ccc(F)c(F)c2c(=O)n1CC)N1CCCN(C)CC1` (stereo not drawn) [Example 72, 3-ethyl-5,6-difluoro-2-(1-(4-methyl-1,4-diazepan-1-yl)butyl)quinazolin-4(3H)-one], the Ki (at Human σ1 receptor; in test [1]) was less than 500 nM each time.
Take `CCC[C@@H](c1nc2ccc(Cl)cc2c(=O)n1CC)N1CCN(C)C[C@H](C)C1` [Example 73, 6-chloro-2-((S)-1-((S)-4,6-dimethyl-1,4-diazepan-1-yl)butyl)-3-ethylquinazolin-4(3H)-one]: the figures for the Ki (at Human σ1 receptor; in test [1]) were greater than 1000 nM and greater than 5000 nM, respectively.
For `CCC[C@@H](c1nc2ccc(Cl)cc2c(=O)n1CC)N1CCN(C)C[C@@H](C)C1` [Example 74, 6-chloro-2-((S)-1-((R)-4,6-dimethyl-1,4-diazepan-1-yl)butyl)-3-ethylquinazolin-4(3H)-one], the Ki at Human σ1 receptor is greater than 1000 nM; in test [1] it was greater than 5000 nM.
Turning to `CCC[C@H](c1nc2ccc(Cl)cc2c(=O)n1CC)N1CCN(C)C[C@H](C)C1` [Example 75, 6-chloro-2-((R)-1-((S)-4,6-dimethyl-1,4-diazepan-1-yl)butyl)-3-ethylquinazolin-4(3H)-one], the inhibition constant Ki at Human σ1 receptor was 500 to 1000 nM; in test [1], less than 500 nM.
For the compound `CCC[C@H](c1nc2ccc(Cl)cc2c(=O)n1CC)N1CCN(C)C[C@@H](C)C1` [Example 76, 6-chloro-2-((R)-1-((R)-4,6-dimethyl-1,4-diazepan-1-yl)butyl)-3-ethylquinazolin-4(3H)-one], the Ki at Human σ1 receptor was 500 to 1000 nM; in test [1] it was less than 500 nM.
As for `CCCC(c1nc2cc(F)c(Br)cc2c(=O)n1C)N1CCCN(C)CC1` (stereo not drawn) [Example 77, 6-bromo-7-fluoro-3-methyl-2-(1-(4-methyl-1,4-diazepan-1-yl)butyl)quinazolin-4(3H)-one], the Ki at Human σ1 receptor was less than 500 nM; in test [1], 500 to 5000 nM.
The corresponding values for `CCCC(c1nc2ccc(F)c(F)c2c(=O)n1CC)N1CCCN(CC)CC1` (stereo not drawn) [Example 78, 3-ethyl-2-(1-(4-ethyl-1,4-diazepan-1-yl)butyl)-5,6-difluoroquinazolin-4(3H)-one] are less than 500 nM and 500 to 5000 nM.
Take `CCCC(c1nc2ccc(Cl)cc2c(=O)n1CCC)N1CCCN(CC)CC1` (stereo not drawn) [Example 79, 6-chloro-2-(1-(4-ethyl-1,4-diazepan-1-yl)butyl)-3-propylquinazolin-4(3H)-one]: the Ki (at Human σ1 receptor; in test [1]) was less than 500 nM each time.
With `CCCC(c1nc2ccc(Br)cc2c(=O)n1CC)N1CCN2CCC1CC2` (stereo not drawn) [Example 80, 2-(1-(1,4-diazabicyclo[3.2.2]nonan-4-yl)butyl)-6-bromo-3-ethylquinazolin-4(3H)-one], the Ki was greater than 1000 nM on Human σ1 receptor and greater than 5000 nM in test [1].
`CCCC(c1nc2ccc(F)c(F)c2c(=O)n1CC)N1CCCNCC1` (stereo not drawn) [Example 81, 2-(1-(1,4-diazepan-1-yl)butyl)-3-ethyl-5,6-difluoroquinazolin-4(3H)-one]: the Ki on Human σ1 receptor is 500 to 1000 nM; in test [1] it was less than 500 nM.
As for `CCCC(c1nc2ccc(Br)c(Cl)c2c(=O)n1CC)N1CCCNCC1` (stereo not drawn) [Example 82, 2-(1-(1,4-diazepan-1-yl)butyl)-6-bromo-5-chloro-3-ethylquinazolin-4(3H)-one], the inhibitory constant (Ki) at Human σ1 receptor lay within 500 to 1000 nM; in test [1], 500 to 5000 nM.
As to `CCCC(c1nc2ccc(Br)c(Cl)c2c(=O)n1CC)N1CCCN(CC)CC1` (stereo not drawn) [Example 83, 6-bromo-5-chloro-3-ethyl-2-(1-(4-ethyl-1,4-diazepan-1-yl)butyl)quinazolin-4(3H)-one], the results for the inhibitory constant (Ki) (at Human σ1 receptor; in test [1]) were less than 500 nM and greater than 5000 nM, respectively.
On to `CCCC(c1nc2ccc(Br)cc2c(=O)n1C)N1CCCN(C)CC1` (stereo not drawn) [Example 84, 6-bromo-3-methyl-2-(1-(4-methyl-1,4-diazepan-1-yl)butyl)quinazolin-4(3H)-one], for which the inhibition constant (Ki) was less than 500 nM on Human σ1 receptor and 500 to 5000 nM in test [1].
In the case of `CCCC(c1nc2ccc(Br)cc2c(=O)n1C)N1CCCN(CC)CC1` (stereo not drawn) [Example 85, 6-bromo-2-(1-(4-ethyl-1,4-diazepan-1-yl)butyl)-3-methylquinazolin-4(3H)-one], the figures for the Ki (on Human σ1 receptor; in test [1]) were less than 500 nM and greater than 5000 nM, respectively.
With `CCCC(c1nc2cccnc2c(=O)n1CC)N1CCCN(C)CC1` (stereo not drawn) [Example 86, 3-ethyl-2-(1-(4-methyl-1,4-diazepan-1-yl)butyl)pyrido[3,2-d]pyrimidin-4(3H)-one], the Ki is greater than 1000 nM on Human σ1 receptor and greater than 5000 nM in test [1].
The like results for `CCCC(c1nc2cc(Cl)c(Cl)cc2c(=O)n1CC)N1CCCN(C)CC1` (stereo not drawn) [Example 87, 6,7-dichloro-3-ethyl-2-(1-(4-methyl-1,4-diazepan-1-yl)butyl)quinazolin-4(3H)-one] were, in that order, less than 500 nM and less than 500 nM.
The corresponding values for `CCCC(c1nc2cccnc2c(=O)n1CC)N1CCCN(CC)CC1` (stereo not drawn) [Example 88, 3-ethyl-2-(1-(4-ethyl-1,4-diazepan-1-yl)butyl)pyrido[3,2-d]pyrimidin-4(3H)-one] are greater than 1000 nM and greater than 5000 nM.
The corresponding values for `CCCC(c1nc2cc(F)c(Cl)cc2c(=O)n1CC)N1CCCN(C)CC1` (stereo not drawn) [Example 89, 6-chloro-3-ethyl-7-fluoro-2-(1-(4-methyl-1,4-diazepan-1-yl)butyl)quinazolin-4(3H)-one] are less than 500 nM and less than 500 nM.
Consider `CCCC(c1nc2cc(F)c(Cl)cc2c(=O)n1CC)N1CCCNCC1` (stereo not drawn) [Example 90, 2-(1-(1,4-diazepan-1-yl)butyl)-6-chloro-3-ethyl-7-fluoroquinazolin-4(3H)-one], for which the Ki at Human σ1 receptor is greater than 1000 nM; in test [1], less than 500 nM.
The like results for `CCCC(c1nc2cc(Cl)c(Cl)cc2c(=O)n1CC)N1CCCNCC1` (stereo not drawn) [Example 91, 2-(1-(1,4-diazepan-1-yl)butyl)-6,7-dichloro-3-ethylquinazolin-4(3H)-one] were, in that order, 500 to 1000 nM and less than 500 nM.
The like results for `CCC[C@H](c1nc2ccc(Br)cc2c(=O)n1CC)N1CCN[C@H](C)CC1` [Example 92, 6-bromo-3-ethyl-2-((R)-1-((R)-5-methyl-1,4-diazepan-1-yl)butyl)quinazolin-4(3H)-one] were, in that order, greater than 1000 nM and 500 to 5000 nM.
